From patent US10266510B2, “Antimicrobial and cytotoxic compounds and methods for treating cancer, a bacterial infection, and/or a fungal infection” (King Abdulaziz University, priority 2017, dated 2019)

Legend:
Assay in all cases: Well diffusion agar method, inhibition zone
Type in all cases: cell-based
[1] = tested on: Aspergillus flavus ATCC 16883; conditions: for Antifungal activity (in words): A. flavus, in comparison with Neomycin; for zone of inhibition at 50 µg/mL: Aspergillus flavus, ATCC16883
Description: (§1) The ability to inhibit the growth of Gram-positive and Gram-negative bacteria, yeasts and filamentous fungi was observed using an overlay method (S. R. Connell, D. M. Tracz, K. H. Nierhaus, D. E. Taylor, Antimicrob. Agents Chemother. 47, 3675 (2003), incorporated herein by reference in its entirety).
(§2) The common pathogenic and food spoilage microorganisms were selected for their relevance in bakery products and other food: the gram-positive bacteria: Bacillus subtilits NRRL-B-4219, Staphylococcus aureus ATCC 6538, Enterococcus faecalis ATCC 19433; the gram negative bacteria: Escherichia coli ATCC 25922, Pseudomonas aeruginosa ATCC 9027, Proteus sp.; yeasts, such as Candida albicans ATCC 10231; and fungi: Aspergillus niger NRRL 2766 (equivalent to ATCC 16888), and Aspergillus flavus ATCC 16883. The bacteria were slanted on nutrient agar (Merck, Darmstadt, Germany), yeast was slanted and mentioned on Sabaroud's agar medium (Lab M., Bury, Lancashire, UK) and the fungi was slanted and mentioned on the potato Dextrose Agar medium (Lab M Limited, Bury, Lancashire, UK). Mueller-Hinton agar (Lab M., Bury, Lancashire, UK) following the manufacturer's instructions was used for the assay.
(§3) All compounds were dissolved in dimethyl sulfoxide (RFCL Limited, New Delhi, India) at 50 μg/mL concentration as shown in Table 4 in comparison with different standard antibiotics. Antibiotic discs of Streptomycin (S) (10 μg), Oxytetracycline (T) (30 μg), and Tetracyciline (TE) (30 μg) were used as positive controls for bacteria. Neomycin (N) (30 μg), was used for fungi.
(§4) The antibacterial screening was performed with the well diffusion agar method (S. T. Williams, M. Goodfellow, E. M. H. Wellington, J. C. Vickers, G. Alderson, P. H. A. Sneath, S. M. J. Sackins, A. M. Mortimer, J. Gen. Microbiol. 129, 1815(1983); and B. Bonev, J. Hooper, J. Parisot, J. Antimicrob. Chemother., 61, 1295(2008), each incorporated herein by reference in their entirety). The organisms were streaked in radial patterns on the agar plates. Plates were incubated under aerobic conditions at 37° C. and 28° C. for 24 h and 48 h for bacteria and fungi, respectively. All prepared solutions were treated under the same conditions under the same incubated plates. All tests were performed in triplicate. Plates were examined for evidence of antimicrobial activities, represented by a zone of inhibition of the microorganism's growth around the holes, and diameters of clear zones were expressed in millimeters (R. Cruickshank, J. P. Duguid, B. P. Marmion, R. H. A. Swain, The practice of medicinal microbiology. In Medical Microbiology, 12th ed.; Churchill Livingstone: Edinburgh, UK, Volume 11, pp. 196-202 (1975), incorporated herein by reference in its entirety).

[2] = tested on: Aspergillus niger NRRL 2766; conditions: for zone of inhibition at 50 µg/mL / Antifungal effect (in words): Aspergillus niger; for zone of inhibition at 50 µg/mL: NRRL2766; for Antifungal effect (in words): in comparison with Neomycin
Description: as §1, §2, §3, §4

[3] = tested on: Bacillus subtilits NRRL-B-4219; conditions: compound at 50 μg/mL in DMSO, 37° C., 24 h; for zone of inhibition at 50 µg/mL: Bacillus, NRRLB4219
Description: as §1, §2, §3, §4

[4] = tested on: Candida albicans ATCC 10231; conditions: compound at 50 μg/mL in DMSO, 28° C., 48 h; for zone of inhibition at 50 µg/mL: Candida albicans, ATCC10231
Description: as §1, §2, §3, §4

[5] = tested on: Enterococcus faecalis ATCC 19433; conditions: compound at 50 μg/mL in DMSO, 37° C., 24 h; for zone of inhibition at 50 µg/mL: Enterococcus faecalis, ATCC19433, read-out: Inhibition zone, Ent. faecalis
Description: as §1, §2, §3, §4

[6] = tested on: Escherichia coli ATCC 25922; conditions: compound at 50 μg/mL in DMSO, 37° C., 24 h; for zone of inhibition at 50 µg/mL: Escherichia coli, ATCC25922, read-out: Inhibition zone, E. coli
Description: as §1, §2, §3, §4

[7] = tested on: Proteus sp.; conditions: compound at 50 μg/mL in DMSO; 37° C., 24 h
Description: as §1, §2, §3, §4

[8] = tested on: Pseudomonas aeruginosa ATCC 9027; conditions: compound at 50 μg/mL in DMSO, 37° C., 24 h; for zone of inhibition at 50 µg/mL: Pseudomonas aeruginosa, ATCC9027, read-out: Inhibition zone, P. aeruginosa
Description: as §1, §2, §3, §4

[9] = tested on: Staphylococcus aureus ATCC 6538; conditions: compound at 50 μg/mL in DMSO, 37° C., 24 h; for zone of inhibition at 50 µg/mL: Staphylococcus aureus, ATCC6538, read-out: Inhibition zone, S. aureus
Description: as §1, §2, §3, §4

[10] = compound at 50 μg/mL in DMSO, 28° C., 48 h

Row | Compound | Antifungal activity (in words) [1] | zone of inhibition at 50 µg/mL [1, 10] | zone of inhibition at 50 µg/mL [2, 10] | Antifungal effect (in words) [2] | zone of inhibition at 50 µg/mL [3] | zone of inhibition at 50 µg/mL [4] | zone of inhibition at 50 µg/mL [5] | zone of inhibition at 50 µg/mL [6] | zone of inhibition at 50 µg/mL [7] | zone of inhibition at 50 µg/mL [8] | zone of inhibition at 50 µg/mL [9] | Inhibition zone, A. flavus [1, 10] | Inhibition zone, A. niger [2, 10] | Inhibition zone, B. subtilits [3] | Inhibition zone, C. albicans [4] | Inhibition zone, Ent. faecalis [5] | Inhibition zone, E. coli [6] | Inhibition zone, Proteus sp. [7] | Inhibition zone, P. aeruginosa [8] | Inhibition zone, S. aureus [9]
1 | CCOC1Oc2ccccc2C(=O)C1=NNc1ccc(Cl)cc1 (stereo not shown) [Compound 6c, 3-[(4-Chlorophenyl)hydrazono]-2-ethoxychroman-4-one] | moderate activity | 17 mm | 18 mm | more potent antifungal effect | 32 mm | 20 mm | 21 mm | 30 mm | 26 mm | 28 mm | 30 mm |  |  |  |  |  |  |  |  | 
2 | Ethoxy-3-[(4-nitro-phenyl)-hydrazono]-chroman-one [Compound 6a] | moderate activity |  |  | more potent antifungal effect |  |  |  |  |  |  |  | 22 mm | 22 mm | 32 mm | 24 mm | 25 mm | 33 mm | 27 mm | 30 mm | 28 mm
3 | CCOC1Oc2ccccc2C(=O)C1=NNc1ccccc1OC (stereo not shown) [Compound 6b, 2-ethoxy-3-(2-(2-methoxyphenyl)hydrazono)chroman-4-one] |  | 0 mm | 0 mm |  | 16 mm | 0 mm | 0 mm | 12 mm | 0 mm | 0 mm | 13 mm |  |  |  |  |  |  |  |  | 
